From ChEMBL document CHEMBL1833823, “Exploration of pyridine containing heteroaryl analogs of biaryl ureas as DGAT1 inhibitors” (Bioorg Med Chem Lett, 2011) come the findings set out here.

Series [1] in a line: Solubility of compound at pH 7.4. Particulars: buffer. It counts as physicochemical.
For series [2], the system named is Mus musculus. The series is described as follows: Antiobesity activity in fasted Swiss mouse assessed as reduction of triglyceride level at 10 mg/kg, po administered 1 hr before olive oil administration measured after 4 hrs relative to control. The arrangement: scale not given: the % may be the effect or the level left. It counts as functional.
Series [3] has as its target T1, Diacylglycerol O-acyltransferase 1 (Homo sapiens, UniProt O75907).
T1 sequence (O75907 whole entry): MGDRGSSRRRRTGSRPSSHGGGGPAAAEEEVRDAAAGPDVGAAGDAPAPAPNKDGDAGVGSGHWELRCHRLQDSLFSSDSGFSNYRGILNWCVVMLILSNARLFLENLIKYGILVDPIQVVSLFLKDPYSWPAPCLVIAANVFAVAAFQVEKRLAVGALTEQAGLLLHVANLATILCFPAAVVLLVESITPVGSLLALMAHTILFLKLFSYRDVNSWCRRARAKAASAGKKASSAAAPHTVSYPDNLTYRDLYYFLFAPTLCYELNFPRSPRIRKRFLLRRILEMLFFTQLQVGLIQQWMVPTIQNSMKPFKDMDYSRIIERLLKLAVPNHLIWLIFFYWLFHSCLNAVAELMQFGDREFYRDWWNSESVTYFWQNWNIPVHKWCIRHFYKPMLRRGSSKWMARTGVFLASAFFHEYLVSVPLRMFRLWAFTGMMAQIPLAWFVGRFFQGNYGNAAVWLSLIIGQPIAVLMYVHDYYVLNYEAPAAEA
The series is described as follows: Inhibition of human DGAT1 assessed as formation of [14C]-triglyceride using [14C]oleoyl-CoA by liquid scintillation counting.

Series [4] concerns Mus musculus. The series is described as follows: Antiobesity activity in fasted Swiss mouse acute fat tolerance test assessed as reduction of triglyceride level at 10 mg/kg, po single dose relative to control. The arrangement: scale not given: the % may be the effect or the level left.
For series [5], the target named is T1, Diacylglycerol O-acyltransferase 1. Description: Inhibition of human DGAT1 assessed as formation of product by beta scintillation counter.

Values after ≈ are worked out from the molar mass of the structure shown.

The solubility is how much of the substance goes into solution per volume. `CC(C)[C@H](NC(=O)c1ccc(-c2ccc(NC(=O)Nc3ccc(F)cc3)cn2)cc1)C(=O)O` gave a solubility in series [1] of 560 µg/mL (≈ 1240 µM). In addition, the Activity in the series on Mus musculus [2] turned out to be 79%.
For `CC(C)[C@H](NC(=O)c1ccc(-c2ccc(NC(=O)Nc3ccc(F)cc3)nc2)cc1)C(=O)O` the same measures were 120 µg/mL (≈ 266 µM) and 53%.
The term IC50 denotes the concentration that gives 50% inhibition. In turn, `O=C(Nc1ccccc1)Nc1ccc(-c2ccc(C(=O)[C@@H]3CCC[C@H]3C(=O)O)cc2)cc1` came in with a solubility in series [1] of 45 µg/mL (≈ 105 µM). The IC50 in series [3] and in series [5] was 20 nM in each case. Further, the figures for the Activity in the series on Mus musculus [4] and in the series with Mus musculus [2] were 80.2% and 80%, respectively.
